Series [1] is described as follows: Cmax in NZBWF1/J mouse at 25 mg/kg, po. Type of series: ADME, organism-based. Also on record: dose 25 mg/kg, route oral. The conditions noted are these: in vivo.
Series [2] deals with Mus musculus. Kind of series: Cavg in NZBWF1/J mouse at 25 mg/kg, po. Type of series: ADME, organism-based. Details: dose 25 mg/kg, route oral. The conditions noted are these: in vivo.
Series [3] is described as follows: Aqueous solubility of compound. Type of series: physicochemical. Particulars: buffer.
Series [4] is described as follows: AUC in NZBWF1/J mouse at 25 mg/kg, po. Type of series: ADME, organism-based. Particulars: plasma. Details: dose 25 mg/kg, route oral.
A short description of series [5]: Permeability by PAMPA. Format: ADME. The conditions noted are these: read-out: permeability. On the technique in general: The PAMPA barrier holds no transporters, so it reflects passive diffusion.

Values after ≈ are worked out from the molar mass of the structure shown.

In general, Cmax refers to the peak of the concentration-time curve. As usually defined, the solubility is how much of the substance goes into solution per volume. The AUC is the area under the concentration-time curve, a measure of exposure. Low values mean less exposure, high ones more exposure. The compound `Cc1c(Nc2c(C#N)cncc2/C=C/c2cccc(CN3CCN(C)CC3)n2)ccc2[nH]ccc12` registered a Cmax in series [1] of 2200 nM. The Drug uptake in series [2] turned out to be 740 nM. This compound returned a solubility in series [3] of 61 µg/mL (≈ 132 µM). Also, the exposure (AUC) in series [4] was determined as 17.8 µM·h. For the same compound, the Papp in series [5] came to 0.39 ×10⁻⁶ cm/s.

The values above are taken from ChEMBL document CHEMBL1155381, “Optimization of 5-vinylaryl-3-pyridinecarbonitriles as PKCtheta inhibitors” (Bioorg Med Chem Lett, 2010).
